For this data set the following is noted: 298.15 K, 101.33 kPa, Liquid; for viscosity: Capillary tube (Ostwald / Ubbelohde) method.

Numbers after ± are expanded uncertainties.

What is called mass density is the mass of a sample divided by its volume. By viscosity is commonly meant the resistance of a fluid to flow. `CC(C)(C)O` [2-methylpropan-2-ol]: the mass density stood at 780.78 ± 0.65 kg/m3 and the viscosity turned out to be 4.384 ± 0.038 mPa·s.
As to `CC(C)CO` [2-methyl-1-propanol], the mass density is given as 797.77 ± 0.62 kg/m3 and the viscosity was determined as 3.353 ± 0.027 mPa·s.
For the molecule `CCCCCC` [hexane], the mass density turned out to be 655.07 ± 0.98 kg/m3 and the viscosity was 0.2949 ± 0.0048 mPa·s.
Consider `CCCCCl` [1-chlorobutane], for which the mass density is reported as 880.69 ± 0.61 kg/m3 and the viscosity was found to be 0.4235 ± 0.0054 mPa·s.

The values above are taken from the NIST ThermoML archive (doi:10.1021/je800048f).
